Data taken from ChEMBL document CHEMBL1201862, “PubChem BioAssay data set” (2004).
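Each compound was tested at five concentrations against cells in 96-well plates for 48 hours. Abbreviation: GI50, concentration required for 50% inhibition of growth.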 Active and inactive are the calls of the source. Rule as the data show it: active = GI50 up to about 1.1 µM and inactive = higher.

Assays:
Assay in all cases: DTP human tumour cell line panel, 48 h
Malme-3M = tested on: Malme-3M
786-0 = tested on: 786-0
BT-549 = tested on: BT-549
HCT-116 = tested on: HCT-116
COLO 205 = tested on: COLO 205
Hs-578T = tested on: Hs-578T
NCI-H23 = tested on: NCI-H23
SW-620 = tested on: SW-620
SNB-75 = tested on: SNB-75
IGROV-1 = tested on: IGROV-1
KM12 = tested on: KM12
MDA-MB-231 = tested on: MDA-MB-231
K562 = tested on: K562
SK-MEL-5 = tested on: SK-MEL-5
U-251 = tested on: U-251
UACC-257 = tested on: UACC-257
NCI-H226 = tested on: NCI-H226
OVCAR-8 = tested on: OVCAR-8
NCI-H522 = tested on: NCI-H522
A498 = tested on: A498

Row | Structure (SMILES) | GI50 (Malme-3M) | GI50 (786-0) | GI50 (BT-549) | GI50 (HCT-116) | GI50 (COLO 205) | GI50 (Hs-578T) | GI50 (NCI-H23) | GI50 (SW-620) | GI50 (SNB-75) | GI50 (IGROV-1) | GI50 (KM12) | GI50 (MDA-MB-231) | GI50 (K562) | GI50 (SK-MEL-5) | GI50 (U-251) | GI50 (UACC-257) | GI50 (NCI-H226) | GI50 (OVCAR-8) | GI50 (NCI-H522) | GI50 (A498)
1 | COc1ccc(-c2c3c(n(C4OC(CO)C(O)C(O)C4O)c(=S)c2C#N)CCC3)cc1 (centres undefined) | 57.8 µM (inactive) | 36 µM (inactive) | 51.2 µM (inactive) | 49.2 µM (inactive) | 68.9 µM (inactive) | 38.7 µM (inactive) | 28.7 µM (inactive) | 71.9 µM (inactive) | 59.4 µM (inactive) | 48.6 µM (inactive) | 59.3 µM (inactive) | > 100 µM (inactive) | 41.9 µM (inactive) | 14.8 µM (inactive) | 37.1 µM (inactive) | > 100 µM (inactive) |  |  |  | 
2 | CCOC(=O)C(C)(Cc1ccc(O)cn1)NC(=O)c1ccccc1 (centres undefined) | > 100 µM (inactive) | > 100 µM (inactive) | > 100 µM (inactive) | > 100 µM (inactive) | > 100 µM (inactive) | > 100 µM (inactive) | > 100 µM (inactive) | > 100 µM (inactive) | 80.4 µM (inactive) | > 100 µM (inactive) | > 100 µM (inactive) | > 100 µM (inactive) | > 100 µM (inactive) | > 100 µM (inactive) | > 100 µM (inactive) | > 100 µM (inactive) | > 100 µM (inactive) | > 100 µM (inactive) | > 100 µM (inactive) | 
3 | CC(C)(C)NCC(O)c1ccc(O)c(CO)n1 (centres undefined) |  | > 100 µM (inactive) | > 100 µM (inactive) | > 100 µM (inactive) | > 100 µM (inactive) | > 100 µM (inactive) | > 100 µM (inactive) | > 100 µM (inactive) | > 100 µM (inactive) | > 100 µM (inactive) | > 100 µM (inactive) | > 100 µM (inactive) |  | > 100 µM (inactive) | > 100 µM (inactive) | > 100 µM (inactive) | > 100 µM (inactive) | > 100 µM (inactive) | > 100 µM (inactive) | > 100 µM (inactive)
4 | CC(N/N=C(\S)N1CCN(c2ccccn2)CC1)c1cccc[n+]1[O-] (centres undefined) |  | 7.71 µM (inactive) | 43.2 µM (inactive) | 2.82 µM (inactive) | 10.5 µM (inactive) | 85.7 µM (inactive) | 28.2 µM (inactive) | 4.85 µM (inactive) | 48.6 µM (inactive) | 43.8 µM (inactive) | 52.4 µM (inactive) | 19 µM (inactive) | 0.811 µM (active) | 12.5 µM (inactive) | 12.8 µM (inactive) | 30.9 µM (inactive) | 34.9 µM (inactive) | 6.9 µM (inactive) | 2.12 µM (inactive) | 
5 | CCSCC(=O)N1CCc2c([nH]c3ccccc23)C1=O | > 100 µM (inactive) | > 100 µM (inactive) | > 100 µM (inactive) | > 100 µM (inactive) | > 100 µM (inactive) | 23.2 µM (inactive) | > 100 µM (inactive) | > 100 µM (inactive) | 78 µM (inactive) | > 100 µM (inactive) | > 100 µM (inactive) | > 100 µM (inactive) | > 100 µM (inactive) | > 100 µM (inactive) | > 100 µM (inactive) | 71.4 µM (inactive) | > 100 µM (inactive) | > 100 µM (inactive) | 64.4 µM (inactive) | 
6 | CN(C)c1ccc(/C=C(\C#N)c2nc(-c3cc4ccccc4oc3=O)cs2)cc1 | 4.65 µM (inactive) | 7.23 µM (inactive) | 1.73 µM (inactive) | 20 µM (inactive) | > 50 µM (inactive) | 13.7 µM (inactive) |  | > 50 µM (inactive) | 1.72 µM (inactive) | 15.4 µM (inactive) | > 50 µM (inactive) | 11.6 µM (inactive) | > 50 µM (inactive) | > 50 µM (inactive) | 6.89 µM (inactive) | > 50 µM (inactive) | 13.6 µM (inactive) | 20.3 µM (inactive) | 6.75 µM (inactive) | 
7 | O=C(O)c1ccc(NS(=O)(=O)Cc2ccccc2)cc1 | > 100 µM (inactive) | > 100 µM (inactive) | > 100 µM (inactive) | > 100 µM (inactive) | > 100 µM (inactive) | > 100 µM (inactive) | > 100 µM (inactive) | > 100 µM (inactive) | > 100 µM (inactive) | > 100 µM (inactive) | > 100 µM (inactive) | > 100 µM (inactive) | > 100 µM (inactive) | > 100 µM (inactive) | > 100 µM (inactive) | > 100 µM (inactive) |  | > 100 µM (inactive) | > 100 µM (inactive) | > 100 µM (inactive)
8 | COC(=O)c1c(OC)cc2cc3c(c(O)c2c1C)C(=O)C1(O)C(=O)C=C(OC)C(OC(=O)CC(C)N)=C1C3=O (centres undefined) |  | 13.6 µM (inactive) | 34.7 µM (inactive) | 4.28 µM (inactive) | > 100 µM (inactive) | 7.52 µM (inactive) | 8.95 µM (inactive) | 37.7 µM (inactive) | 2.54 µM (inactive) | 13.6 µM (inactive) | 5.64 µM (inactive) | 8.47 µM (inactive) |  | 26.9 µM (inactive) | 33.5 µM (inactive) | 19.4 µM (inactive) |  | 11.9 µM (inactive) | 12.1 µM (inactive) | 
9 | CCOC(=O)C1=C(C)N(c2ccc(Cl)cc2)C2(O)C=CC(=O)C3C(=O)N(c4ccccc4)C(=O)C132 (centres undefined) | 1.66 µM (inactive) | 1.53 µM (inactive) | 2.25 µM (inactive) | 1.44 µM (inactive) | 1.67 µM (inactive) | 2.39 µM (inactive) | 1.93 µM (inactive) | 1.54 µM (inactive) | 1.77 µM (inactive) | 1.54 µM (inactive) | 1.69 µM (inactive) | 2.09 µM (inactive) | 3.08 µM (inactive) | 1.6 µM (inactive) | 1.87 µM (inactive) | 2.29 µM (inactive) |  | 2.12 µM (inactive) | 1.1 µM (active) | 1.56 µM (inactive)
10 | COc1cc(Cc2cc3c(c(C(=O)O)c2Br)OCO3)cc(OC)c1OC | 57.8 µM (inactive) | > 100 µM (inactive) | 47.1 µM (inactive) | 37 µM (inactive) | > 100 µM (inactive) | > 100 µM (inactive) | > 100 µM (inactive) | 69.2 µM (inactive) | > 100 µM (inactive) | > 100 µM (inactive) | 39.9 µM (inactive) | > 100 µM (inactive) | 40.9 µM (inactive) | 51.1 µM (inactive) | > 100 µM (inactive) | > 100 µM (inactive) | > 100 µM (inactive) | > 100 µM (inactive) |  | > 100 µM (inactive)
11 | O=c1cc(/N=N\c2ccc(Br)cc2)[nH]c(=S)[nH]1 | 16.4 µM (inactive) | 4.7 µM (inactive) | 56.6 µM (inactive) | 18.2 µM (inactive) | 21.9 µM (inactive) | 32.7 µM (inactive) | 32.7 µM (inactive) | 27.2 µM (inactive) | > 100 µM (inactive) | 53.1 µM (inactive) | 45.1 µM (inactive) | 17.6 µM (inactive) | 21.7 µM (inactive) | 57.1 µM (inactive) | 36.4 µM (inactive) | 27 µM (inactive) | > 100 µM (inactive) | 23.1 µM (inactive) | 15.5 µM (inactive) | 
12 | COC1CC(NC(=O)C(F)(F)F)C(OC(C)=O)C(C)O1 (centres undefined) | > 100 µM (inactive) | > 100 µM (inactive) | > 100 µM (inactive) | > 100 µM (inactive) | > 100 µM (inactive) | > 100 µM (inactive) | > 100 µM (inactive) | > 100 µM (inactive) | > 100 µM (inactive) | > 100 µM (inactive) | > 100 µM (inactive) | > 100 µM (inactive) | > 100 µM (inactive) | > 100 µM (inactive) | > 100 µM (inactive) | > 100 µM (inactive) | 66.5 µM (inactive) | > 100 µM (inactive) | > 100 µM (inactive) | 
13 | CCC(=O)N/S(=N/S(=O)(=O)c1ccccc1)C(Cl)(Cl)Cl (centres undefined) | > 100 µM (inactive) | > 100 µM (inactive) | > 100 µM (inactive) | > 100 µM (inactive) | > 100 µM (inactive) | > 100 µM (inactive) | > 100 µM (inactive) | > 100 µM (inactive) | > 100 µM (inactive) | > 100 µM (inactive) | > 100 µM (inactive) | > 100 µM (inactive) | > 100 µM (inactive) | > 100 µM (inactive) | > 100 µM (inactive) | > 100 µM (inactive) | > 100 µM (inactive) | > 100 µM (inactive) |  | > 100 µM (inactive)
14 | COc1cc(/C=N/n2c(C)n[nH]c2=O)cc(OC)c1OC | > 100 µM (inactive) | > 100 µM (inactive) | 78 µM (inactive) | > 100 µM (inactive) | > 100 µM (inactive) | 0.583 µM (active) | > 100 µM (inactive) | > 100 µM (inactive) | > 100 µM (inactive) |  | 60.1 µM (inactive) | 57.5 µM (inactive) | > 100 µM (inactive) |  | > 100 µM (inactive) | > 100 µM (inactive) | > 100 µM (inactive) | > 100 µM (inactive) |  | 23.4 µM (inactive)
15 | Cc1nc2ccccc2n1Cc1nnc(N)o1 | > 100 µM (inactive) | > 100 µM (inactive) | > 100 µM (inactive) | > 100 µM (inactive) | > 100 µM (inactive) | > 100 µM (inactive) | > 100 µM (inactive) | > 100 µM (inactive) | > 100 µM (inactive) | > 100 µM (inactive) | > 100 µM (inactive) | > 100 µM (inactive) | > 100 µM (inactive) | > 100 µM (inactive) | > 100 µM (inactive) | > 100 µM (inactive) |  | > 100 µM (inactive) | > 100 µM (inactive) | > 100 µM (inactive)
